Values quoted from earlier work in article PMC10675484, “Characterization and Pharmacokinetic Assessment of a New Berberine Formulation with Enhanced Absorption In Vitro and in Human Volunteers” (Pharmaceutics, 2023).
Read-outs that look alike come from different tables or passages of the source. Each block holds one compound with its values, some of them ahead of it.

Assays:
[1] = not given; remark: listed apart in the source
[2] = design: method as in PMID 26851175; conditions: orally administered berberine
[3] = not given; remark: listed apart in the source
[4] = 500 mg berberine, within a 2 h period
[5] = 20 study participants, oral 400 mg of berberine
[6] = human volunteers, doses similar to the current study

- AUC (berberine) [4]: 42.3 ± 17.6 ng·h/mL
- Cmax (berberine) [4]: 0.4 ± 0.17 ng/mL
- Cmax (500 mg of berberine in 10 volunteers): 0.07 nM
- Mean AUC0–∞ [5]: ~9.2 ng·h/mL
- Mean Cmax [5]: approx. 0.4 ng/mL
- Fraction of orally administered dose entering the systemic circulation (human pharmacokinetic studies): ≤ 5%
- AUC (total berberine) [6]: 1217 ± 129 pg·h/mL
- Cmax (total berberine) [6]: 316.88 ± 26.60 pg/mL
- Elimination half-life (oral administration in humans): 2.94 ± 0.14 h
- Absolute bioavailability ([1]; oral administration in rats, ref 23, 24): < 1%
- Absolute bioavailability ([1]; oral administration in rats, ref 24): 0.68%
- Absorption rate in the gut ([1]; oral administration in rats, ref 25): approx. 33.6%
- AUC in the liver relative to plasma ([1]; orally administered berberine 200 mg/kg): 10 fold
- Fraction metabolized in the enterocytes [2]: approx. 43.5%
Structure (SMILES): COc1ccc2cc3[n+](cc2c1OC)CCc1cc2c(cc1-3)OCO2 [berberine, 2,3-methylenedioxy-9,10-dimethoxy-protoberberine]

Structure (SMILES): COc1ccc2c(c1OC)CN1CCc3cc4c(cc3C1=C2)OCO4 [DHB, dihydroberberine]
- Glucose and insulin response (study participants, during the study period): no significant changes

- Biopharmaceutical Classification System class [3]: class III
- Solubility in water [3]: approximately 1.3 mg/mL
Structure (SMILES): COc1ccc2cc3[n+](cc2c1OC)CCc1cc2c(cc1-3)OCO2 [BCl]
